Measured values from BindingDB's records for doi:10.7270/Q2BK19S0 (The Scripps Research Institute Molecular Screening Center, 2010).

Target: Photoreceptor-specific nuclear receptor (Homo sapiens, UniProt Q9Y5X4)
Assay: NR2E3 inverse agonists, dose response, biochemical, TR-FRET (AID 463256)

Photoreceptor-specific nuclear receptor, sequence (Q9Y5X4 whole entry): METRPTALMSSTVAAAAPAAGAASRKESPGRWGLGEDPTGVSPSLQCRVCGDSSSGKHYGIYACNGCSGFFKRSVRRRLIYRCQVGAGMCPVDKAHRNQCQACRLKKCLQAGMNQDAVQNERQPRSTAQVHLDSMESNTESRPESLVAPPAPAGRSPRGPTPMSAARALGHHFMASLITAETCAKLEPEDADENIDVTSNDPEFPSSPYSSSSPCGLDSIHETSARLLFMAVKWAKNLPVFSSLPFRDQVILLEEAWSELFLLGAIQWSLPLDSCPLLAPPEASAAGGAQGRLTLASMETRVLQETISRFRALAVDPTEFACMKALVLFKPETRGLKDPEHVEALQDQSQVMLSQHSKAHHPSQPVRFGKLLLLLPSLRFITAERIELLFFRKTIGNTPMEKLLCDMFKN

## COc1ccc(-n2cc(O)c(-c3nc(-c4ccccc4)cs3)c2N)cc1 [5-amino-1-(4-methoxyphenyl)-4-(4-phenyl-1,3-thiazol-2-yl)-2H-pyrrol-3-one]
  IC50: 13.4 µM
